# Test results reported in patent publication US7893299B2, “Interleukin-1 and tumor necrosis factor-αmodulators; syntheses of such modulators and methods of using such modulators” (Nereus Pharmaceuticals, Inc., priority 2005, dated 2011).
# Read-outs that look alike come from different tables or passages of the source.
# Assays:
# [1] = system: U266 (MM); test: 48 hr cytotoxicity, U266; format: cell-based, human; conditions: Homo sapiens, U-266, 48 h
# Method: (§1) B16-F10 (ATCC; CRL-6475), DU 145 (ATCC; HTB-81), HEK293 (ATCC; CRL-1573), HT-29 (ATCC; HTB-38), LoVo (ATCC; CCL-229), MDA-MB-231 (ATCC; HTB-26), MIA PaCa-2 (ATCC; CRL-1420), NCI-H292 (ATCC; CRL-1848), OVCAR-3 (ATCC, HTB-161), PANC-1 (ATCC; CRL-1469), PC-3 (ATCC; CRL-1435), RPMI 8226 (ATCC; CCL-155) and U266 (ATCC; TIB-196) are maintained in appropriate culture media. The cells are cultured in an incubator at 37° C. in 5% CO2 and 95% humidified air.
# (§2) For cell growth inhibition assays, B16-F10, DU 145, HEK293, HT-29, LoVo, MDA-MB-231, MIA PaCa-2, NCI-H292, OVCAR-3, PANC-1, PC-3, RPMI 8226 and U266 cells are seeded at 1.25×10^3, 5×10^3, 1.5×10^4, 5×10^3, 5×10^3, 1×10^4, 2×10^3, 4×10^3, 1×10^4, 7.5×10^3, 5×10^3, 2×10^4, 2.5×10^4 cells/well respectively in 90 μl complete media into Corning 3904 black-walled, clear-bottom tissue culture plates. 20 mM stock solutions of compounds of Formula II, IIA, and IIB are prepared in 100% DMSO, aliquoted and stored at −80° C. Compounds of Formula II, IIA, and IIB are serially diluted and added in triplicate to the test wells resulting in final concentrations ranging from of 20 μM to 0.2 pM. […]
# (§3) Following 48 hours of drug exposure, 10 μl of 0.2 mg/ml resazurin (obtained from Sigma-Aldrich Chemical Co.) in Mg^2+, Ca^2+ free phosphate buffered saline is added to each well and the plates are returned to the incubator for 3-6 hours. Since living cells metabolize Resazurin, the fluorescence of the reduction product of Resazurin is measured using a Fusion microplate fluorometer (Packard Bioscience) with λex=535 nm and λem=590 nm filters. […]
# (§4) The cytotoxicity assays were performed by seeding individual cell lines at appropriate density in the 96 well flat-bottomed plates and allowed to attach for 24 hours at 37° C., 5% CO2 and 95% humidified air (RPMI 8226 and U266 cells were plated in 96 well plates on the day of compound addition). […] Cell viability was assessed 48 hours later by measuring the fluorescence of the reduction product of Resazurin by a Fusion microplate fluorometer (PerkinElmer) with λex=535 nm and λem=590 nm filters. […]
# [2] = system: RPMI 8226 (MM); test: 48 hr cytotoxicity, RPMI 8226; format: cell-based, human; conditions: Homo sapiens, RPMI-8226, 48 h
# Method: (§5) Human colon adenocarcinoma HT-29 (ATCC# HTB-38), prostate adenocarcinoma PC-3 (ATCC# CRL-1435), breast adenocarcinoma MDA-MB231 (ATCC# HTB-26), Multiple Myeloma RPMI 8226 (ATCC# CCL-155) and U266 (ATCC # TIB-196) cell lines and human normal fibroblast CCD-27sk (ATCC# CRL-1475) were all purchased from ATCC (Manassas, Va.). The cells were maintained in their respective ATCC recommended culture media at 37° C., 5% CO2 and 95% humidified air.
# (§6) The cytotoxicity assays were performed by seeding individual cell lines at appropriate density in the 96 well flat-bottomed plates and allowed to attach for 24 hours at 37° C., 5% CO2 and 95% humidified air (RPMI 8226 and U266 cells were plated in 96 well plates on the day of compound addition). Serially diluted NPI-1387 was added in triplicate to cells at concentrations ranging from 160 nM to 20 μM. Final concentration of 0.25% (v/v) DMSO was used as the vehicle control. Cell viability was assessed 48 hours later by measuring the fluorescence of the reduction product of Resazurin by a Fusion microplate fluorometer (PerkinElmer) with λex=535 nm and λem=590 nm filters. The IC50 values (the drug concentration at which 50% of the maximal observed cytotoxicity is established) were calculated in XLFit 3.0 or XLFit 4.0 (ID Business Solutions Ltd) using a sigmoidal dose response model.
# [3] = system: MDA-MB-231 (Breast); test: 48 hr cytotoxicity, MDA-MB-231; format: cell-based, human; conditions: Homo sapiens, MDA-MB-231, 48 h
# Method: as §1, §2, §3, §4
# [4] = system: PC3 (Prostate); test: 48 hr cytotoxicity, PC-3; format: cell-based, human; conditions: Homo sapiens, 48 h
# Method: as §1, §2, §3, §4
# [5] = system: HT-29 (Colon); test: 48 hr cytotoxicity, HT-29; format: cell-based, human; conditions: Homo sapiens, HT-29, 48 h
# Method: as §5, §6
# [6] = system: THP-1 cells; test: resazurin viability assay in THP-1 cells; format: cell-based, human; conditions: * mild, ** marked reduction in viability, in % (unit assumed)
# Method: (§7) The ability to inhibit TNF-α production was analyzed in THP-1 cells, a human acute monocytic leukemia cell line that is widely used to assess monocyte functions. In order to induce maturation, THP-1 cells were plated at 1×10^6 cells/ml and pretreated with 5 nM PMA for two days. Differentiated THP-1 cells were pretreated with various concentrations of TTL3 or its analogs for 1 hour, followed by a 4 hour incubation with 1 μg of LPS (Sigma, St. Louse, Mo.). The p38 inhibitor (SB 203580; Sigma, St. Louis, Mo.) was used as a positive control. Supernatants were collected and stored at −80° C. until assayed for TNF-α activity. A resazurin assay was performed for each analog to evaluate the effects on cell metabolism and viability.
# A preparation of the dye resazurin, commercially-available as alamarBlue™ (Biosource International Inc., 820 Flynn Road, Camarillo, Calif.), was used for the cytotoxicity assays described herein. The assays and experiments described herein were conducted in substantially the same manner as described in the scientific literature, for example, in Magnani, E. and Bettini, E., “Resazurin detection of energy metabolism changes in serum-starved PC12 cells and of neuroprotective agent effect,” Brain Res Protoc., 2000 July; 5(3):266-72 and in Nociari M. M., Shalev A., Benias P., and Russo C. J, “A novel one-step, highly sensitive fluorometric assay to evaluate cell-mediated cytotoxicity,” Immunol. Methods 213, 157-167 (1998), see also U.S. Pat. No. 5,501,959, entitled “Antibiotic and Cytotoxic Drug Susceptibility Assays using Resazurin and Poising Agents,” the entire specification of which is incorporated herein by reference.
# [7] = system: PC-3 cells; test: cell growth inhibition, PC-3, Resazurin, 1% FBS; format: cell-based, Human; conditions: 48 hr of drug exposure
# Method: (§8) Human prostate adenocarcinoma (PC-3; CRL-1435), multiple myeloma (RPMI 8226; CCL-155) and embryonic kidney (HEK-293; CRL-1573) cells were all purchased from ATCC and maintained in appropriate culture media. The cells were cultured in an incubator at 37° C. in 5% CO2 and 95% humidified air.
# (§9) For cell growth inhibition assays, PC-3 and HEK-293 cells were seeded at 5×10^3 and 1.5×10^3 cells/well respectively in 90 μl media containing 1% (v/v) FBS into 96 well (Corning; 3904) black-walled, clear-bottom tissue culture plates and the plates were incubated overnight to allow cells to establish and enter log phase growth. RPMI 8226 cells were seeded at 2×10^4 cells/well respectively in 90 μl media containing 1% (v/v) FBS into 96 well plates on the day of the assay. 4 mg/ml stock solutions of the compounds were prepared in 100% DMSO and stored at −20° C. The compounds were serially diluted and added in triplicate to the test wells. LT-1-85 was tested at concentrations ranging from 27 μM to 8.6 nM. Concentrations ranging from 30 μM to 9.7 nM were tested for CC-3-13P. Formula (IIB-A1) was tested at concentrations ranging from 26 μM to 8.4 nM. The plates were returned to the incubator for 48 hours. The final concentration of DMSO was 0.25% in all samples.
# (§10) Following 48 hours of drug exposure, 10 μl of 0.2 mg/ml Resazurin in Mg2+, Ca2+ free phosphate buffered saline was added to each well and the plates were returned to the incubator for 3-6 hours. Since living cells metabolize Resazurin, the fluorescence of the reduction product of Resazurin was measured using a Fusion microplate fluorometer (Packard Bioscience) with λex=535 nm and λem=590 nm filters. Resazurin dye in medium without cells was used to determine the background, which was subtracted from the data for all experimental wells. […] Where the maximum inhibition of cell growth was less than 50%, an EC50 value was not determined. The data in Table 25 summarize the growth inhibitory effects of LT-1-85, CC-3-13P and formula (IIB-A1) against HEK-293, PC-3 and RPMI 8226 cells. The EC50 values indicate that LT-1-85 and CC-3-13P are cytotoxic against HEK-293, PC-3 and RPMI 8226 cells. Formula (IIB-A1) is cytotoxic against RPMI 8226 cells.
# [8] = system: HPBMC; test: HPBMC cell viability, Resazurin; format: cell-based, Human; conditions: HPBMC, 24 hr drug exposure, read-out: EC50 Inhibition of cell growth
# Method: (§11) Eighty μl of 3.1×10^5/ml Human Peripheral Blood Mononuclear cells (HPBMC) were seeded in Costar 3904 96-well plate in LGM-3 medium and cultured for 12 hr at 37° C., 5% CO2 and 95% humidified air. 10 μl of 8-point half-log serial dilutions of LT-1-85, CC-3-19, CC-3-13P, formula (IIB-A1) and CC-3-22 prepared in LGM-3 medium was added to the cells and incubated for 1 hr. Subsequently, 10 μl of 500 ng/ml lipopolysaccharide (LPS) diluted in LGM-3 medium from 1 mg/ml stock solution was added to the cells and incubation proceeded for another 4 hr at 37° C., 5% CO2 and 95% humidified air. SB203580, a known p38 MAP kinase inhibitor and DMSO were used as positive and negative controls, respectively. After 4 hr stimulation with LPS, the level of TNF-α from each sample was analyzed by using the human TNF-α cytoset ELISA kit. EC50 values (the drug concentration at which 50% of the maximal observed TNF-α production is inhibited) were determined using a standard sigmoidal dose response curve fitting algorithm (Prism 2.0, GraphPad Software Inc). A duplicate set of cell plates were assayed for cell viability using the Resazurin dye after the cells were incubated with test compounds for 24 hr. The fluorescence of the reduction product of Resazurin was measured using a Fusion microplate fluorometer (Packard Bioscience) with λex=535 nm and λem=590 nm filters. EC50 values (the drug concentration at which 50% of the maximal observed growth inhibition is established) were determined using a standard sigmoidal dose response curve fitting algorithm (Prism 2.0, GraphPad Software Inc).
# [9] = system: RPMI 8226 cells; test: cell growth inhibition, RPMI 8226, Resazurin, 1% FBS; format: cell-based, Human; conditions: 48 hr of drug exposure
# Method: as §8, §9, §10
# [10] = system: TNF-α production in HPBMC; test: TNF-α levels in LPS-stimulated Human Peripheral Blood Mononuclear cells (ELISA); format: cell-based; conditions: 5 hr drug exposure, read-out: EC50 Inhibition of TNF-α production
# Method: as §11
# [11] = system: TNF-α production in THP-1 cells; test: LPS-induced TNF-α production in differentiated THP-1 cells (FLISA); format: cell-based; conditions: Homo sapiens, read-out: Percent TNF-α Inhibition
# Method: as §7
# To detect the presence of human TNFα, fluorescent linked immunosorbent assay or FLISA was developed and optimized. 100 μl of beads (6 μm, Spherotech) coated with goat anti-mouse IgG (1 mg/ml, R and D Systems) were mixed with 4 μl of biotin-anti-hTNFα mouse IgG (0.1 mg/ml, R and D Systems) and 2 μl of FMAT Blue-streptavidin (0.1 mg/ml, Applied Biosystems). 50 μl of the mixtures was combined with 50 μl of the supernatant isolated from treated THP-1 cells and added to the black wall FLISA plates (Applied Biosystems) and incubated overnight. The plates were scanned at factory set PMT setting, and the values were plotted and analyzed by Applied Biosystems software.
smiles,measurement,setting,value
C=CC(=O)[C@]1(C)CCC[C@@]2(C)C3CCC4C[C@@]3(CCC21)CC4=C (stereo partly shown) [NPI-1388],IC50,[1],8.6 ± 6.4 µM
same,IC50,[2],4.1 ± 1.1 µM
same,IC50,[3],14 ± 5 µM
same,IC50,[4],10 ± 3 µM
same,IC50,[5],17 ± 4 µM
C=C[C@@]1(C)CCC=C2[C@H]1CC[C@@H]1[C@](C)(C(=O)O)CCC[C@@]21C [TTL1],Effect on Cell Viability,[6]; 100 ng/ml,100
same,Effect on Cell Viability,[6]; 1 ug/ml,100
C=C[C@@]1(C)CCC=C2[C@H]1CC[C@@H]1[C@](C)(CNCCN)CCC[C@@]21C [CC-3-13P],EC50,[7],4 µM
same,EC50,"[7]; Homo sapiens, PC-3, 48 h",3.7 µM
same,EC50,[8],0.7 µM
same,EC50,"[8]; Homo sapiens, 24 h",0.9 µM
same,EC50,[9],2.7 µM
same,EC50,"[9]; Homo sapiens, RPMI-8226, 48 h",2.3 µM
same,EC50,[10],0.4 µM
same,EC50,"[10]; Homo sapiens, PBMC, 5 h",0.5 µM
C=C[C@@]1(C)CCC=C2[C@H]1CC[C@@H]1[C@](C)(COC(=O)CN3CCOCC3)CCC[C@@]21C [CC-3-22],Effect on Cell Viability,[6]; 100 ng/ml,100
same,Effect on Cell Viability,[6]; 1 ug/ml,100
same,Effect on Cell Viability,[6]; 10 ug/ml,100
same,EC50,"[8]; Homo sapiens, 24 h",24 µM
same,EC50,"[10]; Homo sapiens, PBMC, 5 h",7.4 µM
same,inhibition at 0.1 µg/mL,[11]; 100 ng/ml,0%
same,inhibition at 1 µg/mL,[11]; 1 ug/ml,0%
same,inhibition at 10 µg/mL,[11]; 10 ug/ml,20%
C=C[C@@]1(C)CCC=C2[C@H]1CC[C@@H]1[C@](C)(CC(=O)CN3CCNCC3)CCC[C@@]21C [CC-3-19],EC50,"[8]; Homo sapiens, 24 h",3 µM
same,EC50,"[10]; Homo sapiens, PBMC, 5 h",3.3 µM
